For one test, the system named is Pax7. Briefly: Examination 3: Pax7 expression in skeletal muscle cells in differentiation medium. The class given is cell-based, broiler chicks (Ross 308). Conditions: 100 μM GSSG in differentiation medium; 12 hours after start of culture; FIG. 2D, n=6. The source says: FIGS. 2A to 2D illustrate graphs showing the expression levels of genes related to skeletal muscle cell differentiation upon the addition of GSSG during the skeletal muscle cell differentiation period in Examination 3 (n=6). […] A relative value of the expression level of each factor is expressed as an average±standard deviation of values obtained by dividing the expression levels of each factor by the expression level of RPS9. Each different symbol denotes a significant difference in the […] multiple comparison test (P<0.05). Oxidized glutathione (GSSG) was added to a differentiation-promoting culture medium system of skeletal muscle cells collected from newly hatched broiler chicks (Ross 308, Ross Breeders Ltd.) (under culture conditions simulating the state of skeletal muscle cells of neonatal chicks), phosphorylation of signal factors was analyzed by Western blot, and the differentiation inhibition mechanism was investigated. Expression levels of MyoD, myostatin, IGF-I, and Pax7 as genes involved in myogenesis were determined. Pax7 is a muscle satellite cell marker. […] The expression level of Pax7 was determined by the method described in Examination 1 except that the primer set used herein was a primer set listed in the table below. […] The cells were recovered 0, 12, and 24 hours later, and the expression levels of genes involved in myogenesis were determined. […]

The test system of a further test is myogenin. Briefly: Examination 1: myogenin gene expression in superficial pectoral muscle (real-time PCR, relative to RPS9). Conditions: 3 days old, GSSG addition group (0.01% or 0.1% feed), FIG. 1B, n=6. It is filed as in vivo, broiler chicks of the Chunky breed (Ross 308). The text has this:
(§1) FIGS. 1A to 1D illustrate graphs showing the expression of genes related to skeletal muscle cell differentiation in superficial pectoral muscles upon administration of each feed composition in Examination 1 (n=6). […] A relative value of the expression level of each factor is expressed as an average±standard deviation of values obtained by dividing the expression levels of each factor by the expression level of RPS9. Each different symbol denotes a significant difference in the […] multiple comparison test (P<0.05). Newly hatched broiler chicks of the Chunky breed (Ross 308, Ross Breeders Ltd.) were tested. […] Real-time PCR was performed by adding cDNA, a primer set, and other necessary reagents to wells of a 96-well PCR plate, preheating the plate using a thermal cycler at 95° C. for 3 minutes, followed by 35 cycles of steps of denaturation, annealing, and elongation in a repetitive manner, and measurement of […] after the elongation step for each cycle. The expression level of each gene was designated as a relative value obtained by dividing the determined amount of an amplification product of IGF-I, myostatin, MyoD, or myogenin by the amount of an amplification product of RPS9. […] The amount of GSSG used herein was determined in terms of the amount of free oxidized glutathione. […]
For orientation: Quantitative PCR measures a nucleic acid by following its amplification.

In another test the test system is myostatin. The test is described as follows: Examination 1: myostatin gene expression in superficial pectoral muscle (real-time PCR, relative to RPS9). As to conditions: 3 days old, GSSG addition group (0.01% or 0.1% feed), FIG. 1C, n=6. It is filed as in vivo, broiler chicks of the Chunky breed (Ross 308).
Description: as §1

Take oxidized glutathione [GSSG]: in the test with Pax7, the “expression of Pax7 vs control group” value is “significantly increased”. For the same substance, the “myogenin expression level vs control group” value with myogenin is “significant decreases”. Moreover, the “myostatin expression level vs control group” value in the test on myostatin is “significant decreases”.

For the origin of these results see patent publication US20180271930A1, “METHOD FOR RAISING POULTRY” (priority 2015, published 2018).
